The record followed here is PubChem BioAssay AID256 (DTP/NCI, 2004).

“And” between values parts separate entries of the source, which are not always exact repeats. Equal values may be shown once. Toxic doses and inconclusive results are not listed.

This experiment deals with CD2F1 mice, L1210 leukemia ip, survival T/C. The experiment is described as follows: NCI In Vivo Anticancer Drug Screen. Data for tumor model L1210 Leukemia (intraperitoneal) in CD2F1 (CDF1) mice. Particulars: higher = longer survival. A digest of the protocol: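 In this screen, transplantable tumors were grown in mice given either the compound or its vehicle. Results were expressed as the treated measurement relative to the control measurement.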

Setting [1] is: endpoint: mean survival time, dose: 50.0 mg/kg/injection, schedule: Q01DX009 (ip), vehicle: saline with Tween-80.
The mark [2] stands for this setting: endpoint: mean survival time, dose: 100.0 mg/kg/injection, schedule: Q01DX009 (ip), vehicle: saline with Tween-80.
The mark [3] stands for this setting: endpoint: mean survival time, dose: 200.0 mg/kg/injection, schedule: Q01DX009 (ip), vehicle: saline with Tween-80.
Where [4] appears, read: endpoint: mean survival time, dose: 400.0 mg/kg/injection, schedule: Q01DX009 (ip), vehicle: saline with Tween-80.
Setting [5] is: endpoint: mean survival time, dose: 100.0 mg/kg/injection, schedule: Q04DX003 (ip), vehicle: saline with Tween-80.
[6] abbreviates: endpoint: mean survival time, dose: 100.0 mg/kg/injection, schedule: Q04DX003 (ip), vehicle: saline.
Where [7] appears, read: endpoint: mean survival time, dose: 50.0 mg/kg/injection, schedule: Q04DX002 (ip), vehicle: saline with Tween-80.
Setting [8] is: endpoint: mean survival time, dose: 100.0 mg/kg/injection, schedule: Q04DX002 (ip), vehicle: saline with Tween-80.
[9] abbreviates: endpoint: mean survival time, dose: 200.0 mg/kg/injection, schedule: Q04DX002 (ip), vehicle: saline with Tween-80.
The mark [10] stands for this setting: endpoint: mean survival time, dose: 400.0 mg/kg/injection, schedule: Q04DX002 (ip), vehicle: saline with Tween-80.

Take `CC(=O)Nc1ccc(S(=O)(=O)CO)cc1`: the T/C by setting is: (endpoint: mean survival time, dose: 12.5 mg/kg/injection, schedule: Q01DX009 (ip), vehicle: saline with Tween-80) 97 % of control; (endpoint: mean survival time, dose: 25.0 mg/kg/injection, schedule: Q01DX009 (ip), vehicle: saline with Tween-80) 92 % of control and 97 % of control; under setting [1], 102 % of control and 108 % of control; under setting [2], 101 % of control and 108 % of control; under setting [3], 101 % of control and 103 % of control; under setting [4], 101 % of control and 109 % of control.

For `COCC(=O)C(C(C)=O)C(c1ccc2c(c1)OCO2)C(C(C)=O)C(=O)COC` (stereo unspecified), the T/C is 96 % of control under setting [5]; 101 % of control (endpoint: mean survival time, dose: 200.0 mg/kg/injection, schedule: Q04DX003 (ip), vehicle: saline with Tween-80); 96 % of control (endpoint: mean survival time, dose: 400.0 mg/kg/injection, schedule: Q04DX003 (ip), vehicle: saline with Tween-80).

As to `CNNCCCCC(=O)NC(C)C`, the T/C by setting is: (endpoint: mean survival time, dose: 25.0 mg/kg/injection, schedule: Q04DX003 (ip), vehicle: saline) 105 % of control; (endpoint: mean survival time, dose: 50.0 mg/kg/injection, schedule: Q04DX003 (ip), vehicle: saline) 101 % of control; under setting [6], 101 % of control.

With `CC(C)(C)c1nc2ccccc2p1-c1ccccc1` (stereo unspecified), the T/C (endpoint: mean survival time, dose: 100.0 mg/kg/injection, schedule: Q01DX001 (ip), vehicle: other) is 98 % of control; the T/C (endpoint: mean survival time, dose: 200.0 mg/kg/injection, schedule: Q01DX001 (ip), vehicle: other) was 91 % of control; the T/C (endpoint: mean survival time, dose: 400.0 mg/kg/injection, schedule: Q01DX001 (ip), vehicle: other) was 95 % of control.

Turning to `CCOC(=O)C(C)(C(=O)OCC)c1cc2ccccc2c2ccccc12`, the T/C is, setting by setting: (endpoint: mean survival time, dose: 100.0 mg/kg/injection, schedule: Q01DX001 (ip), vehicle: Klucel (hydroxypropylcellulose) (HPC)) 104 % of control; (endpoint: mean survival time, dose: 200.0 mg/kg/injection, schedule: Q01DX001 (ip), vehicle: Klucel (hydroxypropylcellulose) (HPC)) 104 % of control; (endpoint: mean survival time, dose: 400.0 mg/kg/injection, schedule: Q01DX001 (ip), vehicle: Klucel (hydroxypropylcellulose) (HPC)) 104 % of control.

In the case of `C/C1=C/C2=CC(C)C[C@@H]2C(=O)[C@]2(C)C(=O)CC(C)(C)[C@H]2CC1=O` (stereo partly specified), the T/C was 98 % of control (endpoint: mean survival time, dose: 0.13 mg/kg/injection, schedule: Q01DX009 (ip), vehicle: Klucel (hydroxypropylcellulose) (HPC)); 95 % of control (endpoint: mean survival time, dose: 0.25 mg/kg/injection, schedule: Q01DX009 (ip), vehicle: Klucel (hydroxypropylcellulose) (HPC)); 93 % of control (endpoint: mean survival time, dose: 0.5 mg/kg/injection, schedule: Q01DX009 (ip), vehicle: Klucel (hydroxypropylcellulose) (HPC)); 90 % of control (endpoint: mean survival time, dose: 1.0 mg/kg/injection, schedule: Q01DX009 (ip), vehicle: Klucel (hydroxypropylcellulose) (HPC)).

`CC/C=C(/CC)C1CCCCC1C` (stereo unspecified): the T/C under setting [1] is 87 % of control, the T/C under setting [2] is 96 % of control and the T/C under setting [3] is 96 % of control.

With `N#Cc1ccc(CO)cc1Br`, the T/C was 97 % of control under setting [6]; 90 % of control (endpoint: mean survival time, dose: 200.0 mg/kg/injection, schedule: Q04DX003 (ip), vehicle: saline); 92 % of control (endpoint: mean survival time, dose: 400.0 mg/kg/injection, schedule: Q04DX003 (ip), vehicle: saline).

Take `NC(=O)C(CSCc1ccccc1)NC(=O)OCc1ccccc1` (stereo unspecified): the T/C under setting [2] is 91 % of control, the T/C under setting [3] was 88 % of control and the T/C under setting [4] was 91 % of control.

In the case of `CCCCCCC(Sc1n[nH]c(=O)[nH]c1=O)C(=O)OCC` (stereo unspecified), the T/C (endpoint: mean survival time, dose: 12.5 mg/kg/injection, schedule: Q01DX005 (ip), vehicle: distilled water + Tween-80) is 97 % of control; the T/C (endpoint: mean survival time, dose: 25.0 mg/kg/injection, schedule: Q01DX005 (ip), vehicle: distilled water + Tween-80) was 102 % of control; the T/C (endpoint: mean survival time, dose: 50.0 mg/kg/injection, schedule: Q01DX005 (ip), vehicle: distilled water + Tween-80) was 102 % of control; the T/C (endpoint: mean survival time, dose: 100.0 mg/kg/injection, schedule: Q01DX005 (ip), vehicle: distilled water + Tween-80) is 96 % of control; the T/C (endpoint: mean survival time, dose: 200.0 mg/kg/injection, schedule: Q01DX005 (ip), vehicle: distilled water + Tween-80) is 97 % of control.

`CNC(=O)OCc1c(COC(=O)NC)c(C)n(-c2ccccc2)c1C`: the T/C (endpoint: mean survival time, dose: 6.25 mg/kg/injection, schedule: Q01DX009 (ip), vehicle: Klucel (hydroxypropylcellulose) (HPC)) was 109 % of control; the T/C (endpoint: mean survival time, dose: 12.5 mg/kg/injection, schedule: Q01DX009 (ip), vehicle: Klucel (hydroxypropylcellulose) (HPC)) is 106 % of control; the T/C (endpoint: mean survival time, dose: 25.0 mg/kg/injection, schedule: Q01DX009 (ip), vehicle: Klucel (hydroxypropylcellulose) (HPC)) was 104 % of control.

Consider `CC(=O)N(C(C)=O)c1ncc2ccccc2c1-c1ccc(N)cc1`, for which the T/C by setting is: (endpoint: mean survival time, dose: 25.0 mg/kg/injection, schedule: Q04DX003 (ip), vehicle: saline with Tween-80) 92 % of control; (endpoint: mean survival time, dose: 50.0 mg/kg/injection, schedule: Q04DX003 (ip), vehicle: saline with Tween-80) 89 % of control; under setting [5], 94 % of control.

With `COc1ccc(C(OCC2OC(n3cc(C)c(=O)[nH]c3=O)CC2OP(=O)(O)OCC2OC(n3cc(C)c(=O)[nH]c3=O)CC2OP(=O)(O)OCC2OC(n3cc(C)c(=O)[nH]c3=O)CC2OP(=O)(O)OCC2OC(n3cc(C)c(=O)[nH]c3=O)CC2OP(=O)(O)OCC2OC(n3ccc(N)nc3=O)C(O)C2O)(c2ccccc2)c2ccccc2)cc1` (stereo unspecified), the T/C was 108 % of control (endpoint: median survival time, dose: 25.0 mg/kg/injection, schedule: Q01DX005 (ip), vehicle: saline); 122 % of control (endpoint: median survival time, dose: 50.0 mg/kg/injection, schedule: Q01DX005 (ip), vehicle: saline); 162 % of control (endpoint: median survival time, dose: 400.0 mg/kg/injection, schedule: Q01DX005 (ip), vehicle: saline).

Regarding `C/C(=N\NC(=O)c1ccccc1)c1ccccc1`, the T/C is, setting by setting: under setting [2], 98 % of control; under setting [3], 106 % of control; under setting [4], 102 % of control.

`NCCC(O)C(=O)NC1CC(N)C(OC2OC(CN)C(O)C(O)C2N)C(OC2OC(CO)C(O)C2O)C1O` (stereo unspecified): the T/C reads like this: under setting [7], 100 % of control; (endpoint: mean survival time, dose: 50.0 mg/kg/injection, schedule: Q04DX002 (ip), vehicle: saline) 98 % of control; under setting [8], 100 % of control; (endpoint: mean survival time, dose: 100.0 mg/kg/injection, schedule: Q04DX002 (ip), vehicle: saline) 98 % of control; under setting [9], 96 % of control; (endpoint: mean survival time, dose: 200.0 mg/kg/injection, schedule: Q04DX002 (ip), vehicle: saline) 95 % of control. For the same compound, the T/C by setting is: under setting [10], 96 % of control; (endpoint: mean survival time, dose: 400.0 mg/kg/injection, schedule: Q04DX002 (ip), vehicle: saline) 98 % of control.

For `OCc1cc(Cl)cc(Cl)c1O`, the T/C runs as follows: (endpoint: mean survival time, dose: 100.0 mg/kg/injection, schedule: Q01DX009 (ip), vehicle: other) 93 % of control; (endpoint: mean survival time, dose: 100.0 mg/kg/injection, schedule: Q04DX003 (ip), vehicle: other) 92 % of control; (endpoint: mean survival time, dose: 200.0 mg/kg/injection, schedule: Q01DX009 (ip), vehicle: other) 93 % of control; (endpoint: mean survival time, dose: 200.0 mg/kg/injection, schedule: Q04DX003 (ip), vehicle: other) 92 % of control.

On to `OC12C3CC4C5C3C3(Cl)C(Cl)(Cl)C5(Cl)C(Cl)(C41)C23Cl` (stereo unspecified), for which the T/C is 107 % of control (endpoint: mean survival time, dose: 1.25 mg/kg/injection, schedule: Q01DX001 (ip), vehicle: other); 103 % of control (endpoint: mean survival time, dose: 2.5 mg/kg/injection, schedule: Q01DX001 (ip), vehicle: other); 100 % of control (endpoint: mean survival time, dose: 5.0 mg/kg/injection, schedule: Q01DX001 (ip), vehicle: other).

As for `Cc1nccn1C(C)c1ccccc1` (stereo unspecified), the T/C by setting is: (endpoint: mean survival time, dose: 10.0 mg/kg/injection, schedule: Q04DX003 (ip), vehicle: saline) 105 % of control; (endpoint: mean survival time, dose: 20.0 mg/kg/injection, schedule: Q04DX003 (ip), vehicle: saline) 94 % of control; (endpoint: mean survival time, dose: 40.0 mg/kg/injection, schedule: Q04DX003 (ip), vehicle: saline) 92 % of control.

Regarding `CC(=O)c1c(C(C)C)cc(C(C)C)cc1C(C)C`, the T/C was 98 % of control under setting [2], 101 % of control under setting [3] and 101 % of control under setting [4].

`CC(C)(C)/[N+]([O-])=C/Cc1ccccc1`: the T/C runs as follows: (endpoint: mean survival time, dose: 25.0 mg/kg/injection, schedule: Q04DX002 (ip), vehicle: saline with Tween-80) 97 % of control; under setting [7], 110 % of control; under setting [8], 110 % of control.

In the case of `O=C(O)CC(O)C(=O)O.[Fe]` (stereo unspecified), the T/C (endpoint: mean survival time, dose: 100.0 mg/kg/injection, schedule: Q01DX001 (ip), vehicle: saline) was 93 % of control.

Regarding `O=C(O)CCOc1ccc(F)cc1F`, the T/C was 86 % of control under setting [8], 90 % of control under setting [9] and 86 % of control under setting [10].
